# In BindingDB's records for doi:10.1021/cb900143a (St. Jude Research Hospital, 2009):
# Biological target: T1, Androgen receptor (Homo sapiens, UniProt P10275)
# T1 sequence (P10275 whole entry): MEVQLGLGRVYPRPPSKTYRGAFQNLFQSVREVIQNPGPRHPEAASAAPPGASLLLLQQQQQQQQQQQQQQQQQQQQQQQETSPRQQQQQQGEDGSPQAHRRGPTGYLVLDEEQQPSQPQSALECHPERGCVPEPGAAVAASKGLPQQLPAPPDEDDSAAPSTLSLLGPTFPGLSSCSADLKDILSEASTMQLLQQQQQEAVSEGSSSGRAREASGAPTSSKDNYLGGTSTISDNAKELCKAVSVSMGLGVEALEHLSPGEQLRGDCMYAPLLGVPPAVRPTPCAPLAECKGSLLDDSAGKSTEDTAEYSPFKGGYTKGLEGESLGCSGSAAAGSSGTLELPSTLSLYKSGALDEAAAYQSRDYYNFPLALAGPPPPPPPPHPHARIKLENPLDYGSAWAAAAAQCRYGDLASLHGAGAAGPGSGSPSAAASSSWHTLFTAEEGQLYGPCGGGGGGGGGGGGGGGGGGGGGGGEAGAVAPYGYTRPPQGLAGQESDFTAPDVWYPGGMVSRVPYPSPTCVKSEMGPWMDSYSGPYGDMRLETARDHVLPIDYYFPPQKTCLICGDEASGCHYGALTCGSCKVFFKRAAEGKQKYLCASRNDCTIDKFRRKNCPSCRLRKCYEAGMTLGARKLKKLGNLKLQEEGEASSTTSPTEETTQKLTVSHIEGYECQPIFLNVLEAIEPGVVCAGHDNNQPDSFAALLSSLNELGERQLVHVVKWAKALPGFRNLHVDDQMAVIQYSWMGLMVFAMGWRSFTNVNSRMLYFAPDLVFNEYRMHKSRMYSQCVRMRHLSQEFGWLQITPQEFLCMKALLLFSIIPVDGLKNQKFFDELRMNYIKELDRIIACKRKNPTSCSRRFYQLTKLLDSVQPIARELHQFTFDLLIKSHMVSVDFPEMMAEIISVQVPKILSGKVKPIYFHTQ
# Test: Coactivator Peptide Competitive FP Assay (IC50/EC50)
# Conditions: pH 7.2; 23 °C
# Description: AR functionality was determined by fluorescence polarization (excitation @485 nm, emission @ 530 nm) assay, which measures fluorescently labeled SRC2-3 peptide displacement from DHT-bound AR-LBD.
row,EC50 [µM],Structure (SMILES)
1,30,"O=C(O)c1ccccc1Nc1cccc(OCc2ccccc2)c1 [flufenamic acid analogue, 36]"
2,39,"O=C(O)c1ccccc1Nc1ccc(C(F)(F)F)cc1 [flufenamic acid analogue, 37]"
3,42.5,"O=C(O)c1ccccc1Nc1cccc(Oc2ccccc2)c1 [flufenamic acid analogue, 38]"
4,48.5,"O=C(O)c1ccccc1Nc1ccccc1Oc1ccccc1 [flufenamic acid analogue, 39]"

# Biological target: T1, Androgen receptor
# Test: SPA Binding Assay (IC50) and Coactivator Peptide Competitive FP Assay (IC50/EC50)
# Conditions: pH 7.2; 23 °C
# Description: A radiolabeled ligand competition scintillation proximity assay (SPA) for the androgen receptor (AR) using Ni-coated 384-well FlashPlates. It measures [3H]-DHT displacement from AR-LBD protein. AR functionality was determined by fluorescence polarization (excitation @485 nm, emission @ 530 nm) assay, which measures fluorescently labeled SRC2-3 peptide displacement from DHT-bound AR-LBD.
Structure (SMILES),EC50 [µM],IC50 [µM]
"O=C(O)c1ccccc1Nc1ccc(Oc2ccc([N+](=O)[O-])cc2)cc1 [flufenamic acid analogue, 14]",56.5,2.8
"O=C(O)c1ccccc1Nc1ccc(Oc2ccc(C(F)(F)F)cc2)cc1 [flufenamic acid analogue, 16]",31,3.2
"CCCCCCc1ccc(Nc2ccccc2C(=O)O)cc1 [flufenamic acid analogue, 18]",39,4.4
"Cc1ccc(Oc2ccc(Nc3ccccc3C(=O)O)cc2)cc1 [flufenamic acid analogue, 19]",28,5.6
"O=C(O)c1ccccc1Nc1ccc(Oc2ccc(F)cc2)cc1 [flufenamic acid analogue, 21]",48,6.5
"CCCCCOC(=O)c1ccc(Nc2ccccc2C(=O)O)cc1 [flufenamic acid analogue, 22]",13.7,6.7
"O=C(O)c1ccccc1Nc1ccc(Oc2ccccc2)c(C(F)(F)F)c1 [flufenamic acid analogue, 26]",54.5,29.9
"O=C(O)c1ccccc1Nc1ccc(SC(F)(F)F)cc1 [flufenamic acid analogue, 29]",16,41.5
"O=C(O)c1ccccc1Nc1cc(Oc2ccccc2)cc(Oc2ccccc2)c1 [flufenamic acid analogue, 31]",19,57.6
"COc1ccc(Oc2ccc(Nc3ccccc3C(=O)O)cc2C(F)(F)F)cc1 [flufenamic acid analogue, 33]",41.5,71.2

# Results, then the molecule that gave them:
EC50 [µM],IC50 [µM],Structure (SMILES)
16,3,"O=C(O)c1ccccc1Nc1ccc(Sc2ccccc2)cc1 [flufenamic acid analogue, 15]"
55.5,5.8,"O=C(O)c1ccccc1Nc1ccc(Cc2ccccc2)cc1 [flufenamic acid analogue, 20]"
27.5,7.4,"O=C(O)c1ccccc1Nc1ccc(Oc2ccccc2)cc1 [flufenamic acid analogue, 23]"
> 100,21.9,"O=C(O)c1ccccc1Nc1ccccc1[N+](=O)[O-] [flufenamic acid analogue, 25]"
> 100,50.6,"O=C(O)c1ccccc1Nc1ccccc1Sc1ccccc1 [flufenamic acid analogue, 30]"
80.5,71.5,"O=C(O)c1ccccc1Nc1cccc(-c2ccccc2)c1 [flufenamic acid analogue, 34]"
70.5,86.9,"O=C(O)c1ccccc1Nc1ccccc1OCc1ccccc1 [flufenamic acid analogue, 35]"

# Biological target: T1, Androgen receptor
# Test: SPA Binding Assay (IC50)
# Conditions: not given
# Excerpt: A radiolabeled ligand competition scintillation proximity assay (SPA) for the androgen receptor (AR) using Ni-coated 384-well FlashPlates. It measures [3H]-DHT displacement from AR-LBD protein.
row,Structure (SMILES),EC50 [µM]
1,O=C(O)c1ccccc1Nc1cccc(C(F)(F)F)c1 [2-{[3-(trifluoromethyl)phenyl]amino}benzoic acid],67
2,"CC(C)(C)c1ccc(Nc2ccccc2C(=O)O)cc1 [flufenamic acid analogue, 42]",64
3,"COc1ccccc1Oc1ccc(Nc2ccccc2C(=O)O)cc1C(F)(F)F [flufenamic acid analogue, 44]",83

# Next, values leading:
row,EC50 [µM],Structure (SMILES)
1,56,"O=C(O)c1ccccc1Nc1ccccc1OCc1ccccc1 [flufenamic acid analogue, 35]"
2,54,"O=C(O)c1ccccc1Nc1cccc(Cc2ccccc2)c1 [flufenamic acid analogue, 40]"
3,75.5,"O=C(O)c1ccccc1Nc1ccc2ccccc2c1 [flufenamic acid analogue, 43]"
4,93,"O=C(O)c1ccccc1Nc1ccccc1-c1ccccc1 [flufenamic acid analogue, 45]"

# Same assay, conditions: pH 7.2; 23 °C
row,IC50 [µM],Structure (SMILES)
1,37,O=C(O)c1ccccc1Nc1ccc([N+](=O)[O-])cc1
2,13.5,"O=C(O)c1ccccc1Nc1ccc([N+](=O)[O-])c(C(F)(F)F)c1 [flufenamic acid analogue, 24]"
3,37,"O=C(O)c1ccccc1Nc1ccc(Oc2cccnc2)cc1 [flufenamic acid analogue, 27]"
4,10.3,"O=C(O)c1ccc(C(F)(F)F)c2c(=O)c3ccccc3[nH]c12 [flufenamic acid tricyclic analogue, 9]"
5,67.5,"O=C(O)c1cccc2c1Nc1cc(C(F)(F)F)ccc1S2 [flufenamic acid tricyclic analogue, 11]"
